Laboratory results as given in publication PMC10648349, “Aromatic Diboronic Acids as Effective KPC/AmpC Inhibitors” (Molecules, 2023).
Converted amounts (≈) assume the structure as drawn. “And” between values parts separate entries of the source, which are not always exact repeats. Identical values can stand only once.

Legend:
AmpC producers = test: microdilution with ceftazidime; assay type: cell-based
Experimental: (§1) To examine the ability of tested agents to inhibit various carbapenemases and AmpC-enzymes, their synergy with antibiotics against β-lactamase-producing strains was assessed by checkerboard microdilution assay, with slight modification. Checkerboards were prepared in microtiter plates, with seven two-fold dilutions of β-lactams (1–64 mg/L) in the rows and three two-fold dilutions of tested agents and PBA (4–16 mg/L) in the columns. Tested agents’ concentrations were limited to the concentrations at which the newest commercially available BLIs (vaborbactam, relebactam, and avibactam) are used in susceptibility testing. Plates were inoculated and incubated as in the MIC microdilution assay. Parallel, MICs of tested agents and PBA alone were determined by the microdilution assay. Following the incubation, antibiotic MICs in the presence of each agent’s concentration were determined. Moreover, for the first well without growth found in each checkerboard row and column along the growth/non-growth interface, the fractional inhibitory concentration index (FICI) was calculated using the formula below:FICI = [(MIC of antibiotic in combination)/(MIC of antibiotic alone)] + [(MIC of the tested agent in combination)/(MIC of tested agent alone)].
(§2) For calculations, all off-scale MICs were converted to the next-highest doubling concentration. Subsequently, both the average and the lowest FICI were interpreted. The interpretation was as follows: FICI ≤ 0.5, synergy; 0.5 < FICI ≤ 4, indifference and FICI > 4, antagonism. Primarily, examined combinations consisted of meropenem (Pol-Aura, Morag, Poland) plus tested agents against carbapenemases-producing strains and ceftazidime (Pol-Aura, Morag, Poland) plus tested agents against AmpC-producing strains. For agents that reduced meropenem MIC at least 4-fold for at least two tested strains, similar assays were performed with imipenem (Pol-Aura, Morag, Poland) and ertapenem (Pol-Aura, Morag, Poland).

Gram-positive strains = test: direct antimicrobial activity, MIC; assay type: cell-based
Experimental: (§3) Direct antimicrobial activity against Gram-negative and Gram-positive bacterial strains, as well as against yeast, was examined as previously described by the disc-diffusion test, the MIC determination assay, the MBC (for bacteria), and the MFC (for yeasts) determination tests. All the above-mentioned tests were performed according to EUCAST [71, 72] and CLSI [73, 74, 75, 76, 77] recommendations. The following reference agents were used: nitrofurantoin (for Gram-negative rods), linezolid (for Gram-positive bacteria), and fluconazole (in the case of fungi). The new aromatic diboronic acids were dissolved in DMSO (Sigma, St. Louis, MO, USA). In the disc-diffusion test, the concentration of new agents was 0.4 mg per disc. Depending on the solubility, the MIC and MBC/MFC values were determined up to 100 mg/L for 1k, up to 200 mg/L for 7c, and up to 400 mg/L for the remaining compounds: 1a–1j, 2a–2g, 3a–3f, 4a–4b, 5a–5c, 6a and 7a–7b.

Gram-negative rods = test: MIC in the presence of efflux pump inhibitor PAβN; assay type: cell-based; settings: PAβN 20 mg/L
Experimental: To investigate the contribution of the MDR efflux pumps to the resistance of Gram-negative rods to the newly synthesized compounds, the MIC values of studied agents, with or without the pump inhibitor, PAβN (20 mg/L) (Sigma, St. Louis, MO, USA), were evaluated. The MIC determination was performed in Mueller–Hinton II broth medium (MHB) (Becton, Dickinson and Company, Franklin Lakes, NJ, USA) using 2-fold serial dilutions of tested agents, according to the CLSI guidelines. To minimize the influence of PAβN on the destabilization of bacterial cell covers, the tests were conducted in the presence of 1 mM MgSO4 (Sigma, St. Louis, MO, USA). At least a 4-fold reduction in the MIC value after the addition of PAβN was considered significant.

yeasts = test: antifungal activity, MIC/MFC; assay type: cell-based
Experimental: as §3

E. coli DH5α = test: whole cell assay, meropenem MIC with tested agent; assay type: cell-based, Escherichia coli
Experimental: as §1

[1] = system: E. coli 82 TR(pl 81), transformant carrying blaKPC-3; test: whole cell assay, meropenem MIC with tested agent; assay type: cell-based, Escherichia coli
Experimental: as §1

KPC producers = test: microdilution with carbapenems; assay type: cell-based; settings: agent 16 mg/L
Experimental: as §1, §2

[2] = target: KPC-3 in purified protein extract from E. coli 82 TR(pl 81) (Klebsiella pneumoniae, UniProt Q9F663, H272Y); test: nitrocefin hydrolysis test; assay type: biochemical; settings: single repetitions
Experimental: Overnight culture of E. coli 82 TR(pl 81) in MHB was diluted 1:100 into fresh MHB and incubated with shaking at 37 °C until an OD600 of 1 was attained. […] Further incubation was performed under the same conditions until an OD600 of 3 was reached. The culture with the required OD600 was centrifuged (6700× g, 10 min) and the supernatant was discarded. From the obtained bacterial cell pellet total proteins were extracted with the ReadyPreps™ Protein Preparation Kit (Epicentre Biotechnologies, Madison, WI, USA) and used in the subsequent nitrocefin hydrolysis test, performed in a 96-well microplate. Nitrocefin is a chromogenic cephalosporin substrate routinely used to detect the presence of β-lactamases. First, 20 μL of the protein extract was mixed with 80 μL of tested agents (1a, 2a, 3a and PBA as a reference BLI, each examined at concentrations: 4, 8 and 16 mg/L) or with 80 μL of the phosphate buffer (positive control—corresponding to KPC enzyme activity in the purified total proteins extracted from E. coli 82 TR(pl 81) cells). After 10 min of incubation at the room temperature 100 μL of the nitrocefin (Oxoid, Basingstoke, Hampshire, England) was added to reach its final concentration of 150 μM. β-lactamases hydrolyze the β-lactam ring of nitrocefin, causing its degradation and color change. Nitrocefin hydrolysis was evaluated after 3 min of the incubation at room temperature.
As in our previous publication the presence of β-lactamases in the purified protein extract with and without tested agents was assessed by the spectrophotometric measurement of the rates of nitrocefin hydrolysis as relative absorbance at 486 nm. The level of the measured absorbance indicated β-lactamase activity. Finally, the difference in the relative absorbance between the positive control and the sample concentration of the tested inhibitors was calculated and expressed as a percentage. A reduction in the relative absorbance level in the presence of a tested agent was taken as an indicator of the BLI activity of a used aromatic diboronic acid. The experiment was performed in triplicate.

[3] = Escherichia coli, read-out: MIC of agent alone

Chain of KPC-3 in purified protein extract from E. coli 82 TR(pl 81) (Q9F663 25-293 H272Y): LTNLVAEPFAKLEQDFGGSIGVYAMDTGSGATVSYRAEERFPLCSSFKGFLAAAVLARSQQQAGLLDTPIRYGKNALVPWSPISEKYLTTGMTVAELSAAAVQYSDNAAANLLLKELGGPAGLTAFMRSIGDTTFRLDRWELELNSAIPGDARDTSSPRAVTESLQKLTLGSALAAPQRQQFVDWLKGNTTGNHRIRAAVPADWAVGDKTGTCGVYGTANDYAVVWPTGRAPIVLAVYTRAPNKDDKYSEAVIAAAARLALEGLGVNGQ

## OB(O)c1cccc(F)c1B(O)O [3b]
AmpC producers; agent 4 mg/L
  ceftazidime MIC reduction, up to: ≤ 2 fold
AmpC producers; agent 8 mg/L
  ceftazidime MIC reduction, up to: up to 4 fold
AmpC producers; agent 16 mg/L
  ceftazidime MIC reduction, up to: ≤ 8 fold

## OB(O)c1cc(C(F)(F)F)cc(B(O)O)c1F [2e]
Gram-positive strains; enterococci
  MIC: 50 to 100 µg/mL (≈ 199 to 397 µM)
Gram-positive strains; staphylococci
  MIC: 0.78 to 12.5 µg/mL (≈ 3.1 to 49.7 µM)
Gram-negative rods
  reduction of MIC in the presence of PAβN: 4–16 fold

## OB(O)c1cc(Br)c(B(O)O)cc1Br [1i]
yeasts; moderate antifungal activity
  MIC: 6.25 to 50 µg/mL (≈ 19.3 to 155 µM)

## OB(O)c1ccccc1 [PBA, phenylboronic acid, reference compound]
E. coli DH5α; [3]
  MIC: > 400 µg/mL
E. coli DH5α; agent 16 mg/L
  MIC of meropenem in combination with agent: 0.016 µg/mL
[1]; [3]
  MIC: > 400 µg/mL
[1]; agent 4 mg/L
  MIC of meropenem in combination with agent: 0.50 µg/mL
[1]; agent 8 mg/L
  MIC of meropenem in combination with agent: 0.25 µg/mL
[1]; agent 16 mg/L
  MIC of meropenem in combination with agent: 0.25 µg/mL
KPC producers; KPC-2 producers
  carbapenems' MIC reduction, up to: up to 8 fold
KPC producers; KPC-3 producers
  carbapenems' MIC reduction, up to: up to 4 fold
[2]; agent 4 mg/L
  Relative absorbance (nitrocefin hydrolysis, 486 nm): 1.093 and 1.087 and 1.232
[2]; agent 8 mg/L
  Relative absorbance (nitrocefin hydrolysis, 486 nm): 1.183 and 1.165 and 1.117
[2]; agent 16 mg/L
  Relative absorbance (nitrocefin hydrolysis, 486 nm): 0.975 and 0.933 and 0.957

## OB(O)c1ccccc1S [7c, 2-mercaptophenylboronic acid]
yeasts; yeasts against which fungicidal activity was noticed
  MFC: 25 to 200 µg/mL (≈ 162 to 1300 µM)
Gram-positive strains; all tested coccis
  MIC: 12.5 to 25 µg/mL (≈ 81.2 to 162 µM)

## OB(O)c1cc(F)c(B(O)O)cc1F [1e]
Gram-positive strains; enterococci
  MIC: 100 to 400 µg/mL (≈ 496 to 1980 µM)
Gram-positive strains; staphylococci
  MIC: 12.5 to 50 µg/mL (≈ 62 to 248 µM)

## O=Cc1cc(F)ccc1B(O)O [7b]
Gram-positive strains; enterococci
  MIC: 100 to 400 µg/mL (≈ 595 to 2380 µM)
Gram-positive strains; staphylococci
  MIC: 12.5 to 50 µg/mL (≈ 74.4 to 298 µM)
Gram-negative rods
  reduction of MIC in the presence of PAβN: 4–16 fold

## OB(O)c1ccc(B(O)O)c(B(O)O)c1 [4b, benzene-1,2,4-triboronic]
AmpC producers; agent 4 mg/L
  ceftazidime MIC reduction, up to: ≤ 2 fold
AmpC producers; agent 8 mg/L
  ceftazidime MIC reduction, up to: up to 4 fold
AmpC producers; agent 16 mg/L
  ceftazidime MIC reduction, up to: ≤ 8 fold
